Patent US10005774B2, “Syk inhibitors” (Gilead Sciences, Inc., priority 2013, dated 2018)

target: Syk (Homo sapiens, UniProt P43405); assay: High Throughput Syk Biochemical Assay (KinEASE TR-FRET); details: TABLE D, 20 μM ATP, 1 μM biotinylated peptide, 0.015 nM Syk, 30 min at room temperature, read-out: IC50
Experimental: High Throughput Syk Biochemical Assay
Syk activity was measured using KinEASE (Cisbio), a time-resolved fluorescence resonance energy transfer (TR-FRET) immunoassay. In this assay. Syk-catalyzes the phosporylation of a XL665-labeled peptide substrate. Europium conjugated phospho-tyrosine specific antibody binds the resulting phosphorylated peptide. Formation of phosphorylated peptide is quantified by TR-FRET with Europium as the donor and XL665 the acceptor in a 2-step endpoint assay. In brief, test compounds serially diluted in DMSO were delivered into Corning white, low volume, non-binding 384 well plates using the Echo 550 acoustic liquid dispenser (Labcyte®). Syk enzyme and substrates were dispensed into assay plates using a Multi-Flo (Bio-Tek Instruments). […] Percent inhibition was calculated as follows: % Inhibition=100×(RatioSample−Ratio0% Inhibition)/(Ratio100% Inhibition−Ratio0% Inhibition)

Row | IC50 [nM] | SMILES
1 | 15.9 | CC(C)Cn1cc(-c2cc3ncn(C)c3c(O[C@H](C)[C@H]3CNC(=O)C3)n2)cn1 [(R)-4-((R)-1-(6-(1-isobutyl-1H-pyrazol-4-yl)-3-methyl-3H-imidazo[4,5-c]pyridin-4-yloxy)ethyl)pyrrolidin-2-one]
2 | 17.2 | COc1ccc(-c2cc3ncn(C)c3c(O[C@H](C)[C@H]3CNC(=O)C3)n2)cc1F [(R)-4-((R)-1-(6-(3-fluoro-4-methoxyphenyl)-3-methyl-3H-imidazo[4,5-c]pyridin-4-yloxy)ethyl)pyrrolidin-2-one]
3 | 2.52 | CC(C)n1ccc(-c2cc(O[C@H](C)[C@H]3CNC(=O)C3)c3scnc3c2)n1 (stereo in doubt) [(R)-4-((R)-1-((5-(1-isopropyl-1H-pyrazol-3-yl)benzo[d]thiazol-7-yl)oxy)ethyl)pyrrolidin-2-one]
4 | 317 | COc1ccc(-c2cc3nc(C)n(C(C)C)c3c(O[C@H](C)[C@H]3CNC(=O)C3)n2)cc1OC [(R)-4-((R)-1-(6-(3,4-dimethoxyphenyl)-3-isopropyl-2-methyl-3H-imidazo[4,5-c]pyridin-4-yloxy)ethyl)pyrrolidin-2-one]
5 | 184 | C[C@@H](Oc1nc(-c2cccc3scnc23)cc2ncn(C)c12)[C@H]1CNC(=O)C1 [(R)-4-((R)-1-(6-(benzo[d]thiazol-4-yl)-3-methyl-3H-imidazo[4,5-c]pyridin-4-yloxy)ethyl)pyrrolidin-2-one]
6 | 16.7 | COc1ccc(-c2cc3ncn(C)c3c(O[C@H](C)[C@H]3CNC(=O)C3)n2)cc1C#N
7 | 2.97 | C[C@@H](Oc1cc(-c2cc3c(cnn3C)s2)cc2ncsc12)[C@H]1CNC(=O)C1 (stereo in doubt) [(R)-4-((R)-1-((5-(1-methyl-1H-thieno[3,2-c]pyrazol-5-yl)benzo[d]thiazol-7-yl)oxy)ethyl)pyrrolidin-2-one]
8 | 39.1 | COc1ccc(-c2cc(O[C@H](C)[C@H]3CNC(=O)C3)c3ccnn3c2)cc1OC [(R)-4-((R)-1-((6-(3,4-dimethoxyphenyl)pyrazolo[1,5-a]pyridin-4-yl)oxy)ethyl)pyrrolidin-2-one]
9 | 7.62 | C[C@@H](Oc1nc(-c2cnn(C3CCC3)c2)cc2ncn(C)c12)[C@H]1CNC(=O)C1 [(R)-4-((R)-1-(6-(1-cyclobutyl-1H-pyrazol-4-yl)-3-methyl-3H-imidazo[4,5-c]pyridin-4-yloxy)ethyl)pyrrolidin-2-one]
10 | 45.7 | COc1cccc(-c2cc(O[C@H](C)[C@H]3CNC(=O)C3)c3c(c2)ncn3C)n1 [(R)-4-((R)-1-((5-(6-methoxypyridin-2-yl)-1-methyl-1H-benzo[d]imidazol-7-yl)oxy)ethyl)pyrrolidin-2-one]
11 | 10.5 | Cc1nn(C)c2ccc(-c3cc4ncn(C)c4c(O[C@H](C)[C@H]4CNC(=O)C4)n3)cc12 [(R)-4-((R)-1-((6-(1,3-dimethyl-1H-indazol-5-yl)-3-methyl-3H-imidazo[4,5-c]pyridin-4-yl)oxy)ethyl)pyrrolidin-2-one]

Second part, the compound before the results:

Row | SMILES | IC50 [nM]
12 | Cc1nc2cc(-c3cnn(C(C)(C)C)c3)cc(O[C@H](C)[C@H]3CNC(=O)C3)c2s1 (stereo in doubt) [(R)-4-((R)-1-((5-(1-(tert-butyl)-1H-pyrazol-4-yl)-2-methylbenzo[d]thiazol-7-yl)oxy)ethyl)pyrrolidin-2-one] | 22.2
13 | C[C@@H](Oc1cc(-c2ccc(N3CCOCC3)cc2)cc2ncsc12)[C@H]1CNC(=O)C1 (stereo in doubt) [(R)-4-((R)-1-((5-(4-morpholinophenyl)benzo[d]thiazol-7-yl)oxy)ethyl)pyrrolidin-2-one] | 1.82
14 | C[C@@H](Oc1nc(-c2cc[nH]c(=O)c2)cc2ncn(C)c12)[C@H]1CNC(=O)C1 [4-(3-methyl-4-((R)-1-((R)-5-oxopyrrolidin-3-yl)ethoxy)-3H-imidazo[4,5-c]pyridin-6-yl)pyridin-2(1H)-one] | 97.5
15 | Cc1c(-c2cc3ncn(C)c3c(O[C@H](C)[C@H]3CNC(=O)C3)n2)cnn1C [(R)-4-((R)-1-(6-(1,5-dimethyl-1H-pyrazol-4-yl)-3-methyl-3H-imidazo[4,5-c]pyridin-4-yloxy)ethyl)pyrrolidin-2-one] | 41.7
16 | C[C@@H](Oc1nc(-c2cnn(C3COC3)c2)cc2ncn(C)c12)[C@H]1CNC(=O)C1 [(R)-4-((R)-1-(3-methyl-6-(1-(oxetan-3-yl)-1H-pyrazol-4-yl)-3H-imidazo[4,5-c]pyridin-4-yloxy)ethyl)pyrrolidin-2-one] | 23.5
17 | C[C@@H](Oc1cc(-c2ccc(N3CCOCC3)cc2)cn2ncc(Cl)c12)[C@H]1CNC(=O)C1 [(R)-4-((R)-1-((3-chloro-6-(4-morpholinophenyl)pyrazolo[1,5-a]pyridin-4-yl)oxy)ethyl)pyrrolidin-2-one] | 0.31
18 | Cn1cnc2cc(-c3cnn(C(C)(C)C)c3)nc(O[C@H](CC(F)F)[C@H]3CNC(=O)C3)c21 [(R)-4-((R)-1-(6-(1-tert-butyl-1H-pyrazol-4-yl)-3-methyl-3H-imidazo[4,5-c]pyridin-4-yloxy)-3,3-difluoropropyl)pyrrolidin-2-one] | 94.8
19 | Cn1cnc2cc(-c3cnn(C(C)(C)C)c3)nc(O[C@H](CF)[C@H]3CNC(=O)C3)c21 [(R)-4-((S)-1-(6-(1-tert-butyl-1H-pyrazol-4-yl)-3-methyl-3H-imidazo[4,5-c]pyridin-4-yloxy)-2-fluoroethyl)pyrrolidin-2-one] | 20.1

same assay, conditions: table 'ALL NEW COMPOUNDS IN 2014', 20 μM ATP, 1 μM biotinylated peptide, 0.015 nM Syk, 30 min at room temperature, read-out: Syk IC50

Row | IC50 [nM] | SMILES
20 | 4.84 | C[C@@H](Oc1nc(-c2ccc3c(c2)n(C)c(=O)n3C)cc2ncn(C3CC3)c12)[C@H]1CNC(=O)C1
21 | 22.4 | C[C@@H](Oc1cc(-c2cnn(C)n2)cc2ncn(C3CC3)c12)[C@H]1CNC(=O)C1 [(R)-4-((R)-1-((1-cyclopropyl-5-(2-methyl-2H-1,2,3-triazol-4-yl)-1H-benzo[d]imidazol-7-yl)oxy)ethyl)pyrrolidin-2-one]
22 | 10.2 | Cc1ncc(-c2cc3ncn(C4CC4)c3c(O[C@H](C)[C@H]3CNC(=O)C3)n2)s1 [(R)-4-((R)-1-((3-cyclopropyl-6-(2-methylthiazol-5-yl)-3H-imidazo[4,5-c]pyridin-4-yl)oxy)ethyl)pyrrolidin-2-one]
23 | 65.3 | O=C1C[C@@H](COc2nc(-c3ccc(N4CCN(C5COC5)CC4)cc3)cc3ncn(C4CC4)c23)CN1 [(R)-4-(((3-cyclopropyl-6-(4-(4-(oxetan-3-yl)piperazin-1-yl)phenyl)-3H-imidazo[4,5-c]pyridin-4-yl)oxy)methyl)pyrrolidin-2-one]
24 | 2.76 | C[C@@H](Oc1nc(-c2ccc(N3CCN(C4COC4)CC3)c(Cl)c2)cc2ncn(C3CC3)c12)[C@H]1CNC(=O)C1 [(R)-4-((R)-1-((6-(3-chloro-4-(4-(oxetan-3-yl)piperazin-1-yl)phenyl)-3-cyclopropyl-3H-imidazo[4,5-c]pyridin-4-yl)oxy)ethyl)pyrrolidin-2-one]
25 | 1.41 | C[C@@H](Oc1cc(-c2cnc(C(C)(C)O)s2)cc2ncn(C3CC3)c12)[C@H]1CNC(=O)C1 [(R)-4-((R)-1-((1-cyclopropyl-5-(2-(2-hydroxypropan-2-yl)thiazol-5-yl)-1H-benzo[d]imidazol-7-yl)oxy)ethyl)pyrrolidin-2-one]
26 | 0.442 | C[C@@H](Oc1cc(-c2nc(C(C)(C)C)cs2)cc2ncn(C3CC3)c12)[C@H]1CNC(=O)C1 [(R)-4-((R)-1-((5-(4-(tert-butyl)thiazol-2-yl)-1-cyclopropyl-1H-benzo[d]imidazol-7-yl)oxy)ethyl)pyrrolidin-2-one]

Further lines, the compound ahead of its results:

Row | SMILES | IC50 [nM]
27 | C[C@@H](Oc1nc(-c2cnn(-c3ccncc3)c2)cc2ncn(C3CC3)c12)[C@H]1CNC(=O)C1 | 8.29
28 | C[C@@H](Oc1cc(-c2cnn(-c3ccncc3)c2)cc2ncn(C3CC3)c12)[C@H]1CNC(=O)C1 [(R)-4-((R)-1-((1-cyclopropyl-5-(1-(pyridin-4-yl)-1H-pyrazol-4-yl)-1H-benzo[d]imidazol-7-yl)oxy)ethyl)pyrrolidin-2-one] | 7.58
29 | C[C@@H](Oc1nc(-c2ccc(N3CCN(C4COC4)CC3)cc2F)cc2ncn(C3CC3)c12)[C@H]1CNC(=O)C1 [(R)-4-((R)-1-((3-cyclopropyl-6-(2-fluoro-4-(4-(oxetan-3-yl)piperazin-1-yl)phenyl)-3H-imidazo[4,5-c]pyridin-4-yl)oxy)ethyl)pyrrolidin-2-one] | 10.1
30 | Cc1nn(C)c2ccc(-c3cc4ncn(C5CC5)c4c(O[C@H](C)[C@H]4CNC(=O)C4)n3)cc12 [(R)-4-((R)-1-((3-cyclopropyl-6-(1,3-dimethyl-1H-indazol-5-yl)-3H-imidazo[4,5-c]pyridin-4-yl)oxy)ethyl)pyrrolidin-2-one] | 3.46
31 | COc1cc(-c2cc3ncn(C4CC4)c3c(O[C@H](C)[C@H]3CNC(=O)C3)n2)ccc1OCC(F)F [(R)-4-((R)-1-((3-cyclopropyl-6-(4-(2,2-difluoroethoxy)-3-methoxyphenyl)-3H-imidazo[4,5-c]pyridin-4-yl)oxy)ethyl)pyrrolidin-2-one] | 2.78
32 | Cc1cc(-c2cc3ncn(C4CC4)c3c(O[C@H](C)[C@H]3CNC(=O)C3)n2)sn1 [(R)-4-((R)-1-((3-cyclopropyl-6-(3-methylisothiazol-5-yl)-3H-imidazo[4,5-c]pyridin-4-yl)oxy)ethyl)pyrrolidin-2-one] | 2.27
33 | Cc1ccc(-c2cc3ncn(C4CC4)c3c(O[C@H](C)[C@H]3CNC(=O)C3)n2)s1 [(R)-4-((R)-1-((3-cyclopropyl-6-(5-methylthiophen-2-yl)-3H-imidazo[4,5-c]pyridin-4-yl)oxy)ethyl)pyrrolidin-2-one] | 7.43
34 | CCOc1cc(-c2cc3ncn(C4CC4)c3c(O[C@H](C)[C@H]3CNC(=O)C3)n2)ccc1OC [(R)-4-((R)-1-((3-cyclopropyl-6-(3-ethoxy-4-methoxyphenyl)-3H-imidazo[4,5-c]pyridin-4-yl)oxy)ethyl)pyrrolidin-2-one] | 2.92
